In patent US20220289794A1, “SYNTHETIC ANTIMICROBIAL PEPTIDES” (priority 2019, published 2022):

Tests used:
[1] = test system: Streptococcus pneumoniae ATCC 49619; details: S. pneumoniae ATCC 49619
[2] = test system: Methicillin-resistant Staphylococcus aureus MRSA (ATCC BAA-1556); details: MRSA ATCC BAA-1556
[3] = test system: Klebsiella pneumoniae ATCC 13883; details: Table 16, Gram-negative panel
[4] = test system: Enterococcus faecium ATCC 700221; details: E. faecium ATCC 700221
[5] = test system: Enterococcus faecalis ATCC 29212; details: E. faecalis ATCC 29212
[6] = test system: Streptococcus pneumoniae ATCC 51938; details: S. pneumoniae ATCC 51938
[7] = test system: E. coli (ATCC BAA-2452); test: Broad-spectrum activity against Gram-Negative bacteria (MIC); assay type: cell-based; details: Table 16, Gram-negative panel
[8] = test system: B. subtilis (ATCC-6633); test: Broad-spectrum activity against Gram-Positive bacteria (MIC); assay type: cell-based; parameters: unit not given here
[9] = test system: P. aeruginosa (ATCC BAA-1744); test: Broad-spectrum activity against Gram-Negative bacteria (MIC); assay type: cell-based; details: Table 16, Gram-negative panel
[10] = test system: Enterococcus faecium ATCC 27270; details: E. faecium ATCC 27270
[11] = test system: Pseudomonas aeruginosa (ATCC 27883); details: P. aeruginosa ATCC 27883
[12] = test system: P. aeruginosa (ATCC 10145); test: Broad-spectrum activity against Gram-Negative bacteria (MIC); assay type: cell-based; details: Table 16, Gram-negative panel
[13] = test system: Escherichia coli (ATCC 25922); details: E. coli ATCC 25922
[14] = test system: S. aureus ATCC 29213; details: S. aureus ATCC 29213
[15] = test system: Klebsiella pneumoniae (ATCC BAA-1705); details: Table 16, Gram-negative panel
[16] = test system: Enterococcus faecalis ATCC 51575; details: E. faecalis ATCC 51575
[17] = test system: A. baumannii (ATCC BAA-1605); test: Broad-spectrum activity against Gram-Negative bacteria (MIC); assay type: cell-based; details: Table 16, Gram-negative panel
[18] = test system: B. cereus (ATCC-13061); test: Broad-spectrum activity against Gram-Positive bacteria (MIC); assay type: cell-based; parameters: unit not given here

Substance	Broad-spectrum activity S. pneumoniae (ATCC 49619) [1]	MIC MRSA ATCC BAA-1556 [2]	MIC K. pneumonia (ATCC 13883) [3]	Broad-spectrum activity E. faecium (ATCC 700221) [4]	Broad-spectrum activity E. faecalis (ATCC 29212) [5]	Broad-spectrum activity S. pneumoniae (ATCC 51938) [6]	MIC E. coli (ATCC BAA-2452) [7]	Broad-spectrum activity B. subtilis (ATCC-6633) [8]	MIC P. aeruginosa (ATCC BAA-1744) [9]	Broad-spectrum activity E. faecium (ATCC 27270) [10]	MIC P. aeruginosa ATCC 27883 [11]	MIC P. aeruginosa (ATCC 10145) [12]	MIC E. coli ATCC 25922 [13]	MIC S. aureus ATCC 29213 [14]	MIC K. pneumonia (ATCC BAA-1705) [15]	Broad-spectrum activity E. faecalis (ATCC 51575) [16]	MIC A. baumannii (ATCC BAA-1605) [17]	Broad-spectrum activity B. cereus (ATCC-13061) [18]
c[Arg-Arg-Arg-Arg-Dip-Dip-dip] [IFX-060]	25	1.5 µg/mL	50 µg/mL	1.5	3.1	12.5	12.5 µg/mL	1.5	12.5 µg/mL	3.1	12.5 µg/mL	25 µg/mL	6.2 µg/mL	1.5 µg/mL	12.5 µg/mL	12.5	6.2 µg/mL	3.1
c[Arg-Arg-Arg-Arg-naI-trp-naI] [IFX-143]	50	3.1 µg/mL	> 50 µg/mL	3.1	6.2	12.5	25 µg/mL	3.1	25 µg/mL	3.1	64 µg/mL	50 µg/mL	16 µg/mL	1.5 µg/mL	25 µg/mL	12.5	12.5 µg/mL	6.2
c[Arg-Arg-Arg-arg-Dip-Trp-Dip] [IFX-091]	50	3.1 µg/mL	50 µg/mL	6.2	6.2	12.5	12.5 µg/mL	1.5	25 µg/mL	3.1	12.5 µg/mL	25 µg/mL	12.5 µg/mL	3.1 µg/mL	12.5 µg/mL	12.5	12.5 µg/mL	3.1
c[Arg-arg-Arg-arg-dip-Trp-dip] [IFX-097]	50	3.1 µg/mL	> 50 µg/mL	6.2	6.2	25	25 µg/mL	1.5	50 µg/mL	3.1	12.5 µg/mL	50 µg/mL	12.5 µg/mL	3.1 µg/mL	25 µg/mL	12.5	12.5 µg/mL	6.2
c[arg-arg-arg-arg-Dip-Trp-Dip] [IFX-099]	25	1.5 µg/mL	50 µg/mL	6.2	6.2	12.5	25 µg/mL	1.5	25 µg/mL	3.1	12.5 µg/mL	25 µg/mL	6.2 µg/mL	1.5 µg/mL	25 µg/mL	12.5	12.5 µg/mL	3.1
